Values quoted from earlier work, collected in patent publication US7232435B2, “Delivery of a sympatholytic cardiovascular agent to the central nervous system to counter heart failure and pathologies associated with heart failure” (Medtronic, Inc., priority 2004, dated 2007).
Where a name gives a salt, the structure may show the parent alone.

Legend:
[1] = bolus intravenous injection
[2] = oral or transdermal
[3] = intrathecal delivery

Row | Structure (SMILES) | autonomic effects (sympathetic outflow, vagal tone, baroreceptor reflex sensitivity) [1] | hemodynamic effects (heart rate, preload, afterload, pulmonary artery and right atrial pressure) [1] | time of peak effects [1] | major side effects [2] | undesirable side effects [3]
1 | Clc1cccc(Cl)c1N=C1NCCN1 [clonidine HCl] | decreased sympathetic outflow, increased vagal tone and sensitivity of the baroreceptor reflex | Reductions were observed in heart rate, left ventricular filling pressure (preload), mean systemic arterial pressure (afterload), mean pulmonary artery pressure and right atrial pressure | 5 to 20 min | – | –
2 | Clc1cccc(Cl)c1N=C1NCCN1 [clonidine, 2-[(2,6-dichlorophenyl)amino]-2-imidazoline] | – | – | – | sedation and dry mouth | Abnormally low blood pressure (hypotension) and bradycardia
